Data on twelve compounds can be found in BindingDB's records for doi:10.1021/jm970615f (Parke-Davis Pharmaceutical Research, 1997).

pIC50: −log10 of the molar value.

The pIC50 is the negative decadic logarithm of the IC50, by convention in mol/L. The low end stands for a high IC50, the high end for a low IC50.

One test concerns the target T1, Dimer of Gag-Pol polyprotein [489-587] (Human immunodeficiency virus 1, UniProt P12497).
T1 construct: 489-587
Description: Protease Inhibition Assay.
Details: not given
Here is the method: For determination of IC50 values, HIV-1 protease was added to assay buffer containing inhibitor and the substrate (H-His-Lys-Ala-Arg-Val-Leu- (p-NO2) Phe-Glu-Ala-norleucine-Ser-NH2). The Leu- (p-NO2) Phe bond of the substrate was cleaved by the enzyme, and the substrate and products were separated by reversed-phase HPLC. Absorbance was measured at 220 nm, peak areas were determined, and percentage conversion to product was calculated.
For `CC(C)c1ccccc1SC1C(=O)CC(CCc2ccccc2)(c2ccccc2)OC1=O` (configuration not stated) [4-hydroxy-6-phenyl-6-(2-phenylethyl)-3-{[2-(propan-2-yl)phenyl]sulfanyl}-5,6-dihydro-2H-pyran-2-one], the pIC50 is 7.85.

On to `CC(C)c1ccc(C(C)C)c(SC2C(=O)CC(c3ccccc3)(c3ccccc3)OC2=O)c1` (configuration not stated) [3-{[2,5-bis(propan-2-yl)phenyl]sulfanyl}-4-hydroxy-6,6-diphenyl-5,6-dihydro-2H-pyran-2-one], for which the pIC50 was 6.92.

In turn, `Cc1ccc(C(C)C)c(SC2C(=O)C[C@@](CCc3ccccc3)(c3ccccc3)OC2=O)c1` (stereo partly drawn) [(6S)-4-hydroxy-3-{[5-methyl-2-(propan-2-yl)phenyl]sulfanyl}-6-phenyl-6-(2-phenylethyl)-5,6-dihydro-2H-pyran-2-one] showed a pIC50 of 8.22.

Still in this test, the particulars now being: pH 4.7; 37 °C.
Regarding `O=C1CC(CCc2ccccc2)(c2ccccc2)OC(=O)C1SCCc1ccccc1` (configuration not stated) [5,6-Dihydro-4-hydroxy-6-phenyl-6-(2-phenylethyl)-3-[(2-phenylethyl)thio]-2H-pyran-2-one], the pIC50 is 7.29.

`O=C(O)CCC1(c2ccccc2)CC(=O)C(SCCc2ccccc2)C(=O)O1` (configuration not stated) [3-(3,6-Dihydro-4-hydroxy-6-oxo-2-phenyl-5-[(2-phenylethyl)thio]-2H-pyran-2-yl)propanoic Acid] had a pIC50 of 5.92.

In turn, `CCCCCC1(c2ccccc2)CC(=O)C(SCCc2ccccc2)C(=O)O1` (configuration not stated) [4-hydroxy-6-pentyl-6-phenyl-3-[(2-phenylethyl)sulfanyl]-5,6-dihydro-2H-pyran-2-one] showed a pIC50 of 7.08.

`CCCCCCC1(c2ccccc2)CC(=O)C(SCc2ccccc2)C(=O)O1` (configuration not stated) [3-(benzylsulfanyl)-6-hexyl-4-hydroxy-6-phenyl-5,6-dihydro-2H-pyran-2-one] gave a negative-log IC50 (pIC50) of 6.74.

For the compound `CC(C)CCC1(c2ccccc2)CC(=O)C(SCCc2ccccc2)C(=O)O1` (configuration not stated) [4-hydroxy-6-(3-methylbutyl)-6-phenyl-3-[(2-phenylethyl)sulfanyl]-5,6-dihydro-2H-pyran-2-one], the pIC50 is 7.02.

`O=C1CC(c2ccccc2)OC(=O)C1SCCc1ccccc1` (configuration not stated) [5,6-Dihydro-4-hydroxy-6-phenyl-3-[(2-phenylethyl)thio]-2H-pyran-2-one] gave a negative logarithm of the IC50 (pIC50) of 5.68. This pIC50 is 1.34 log units lower than that of the compound before.

On to `O=C1CC(CCc2ccccc2)(c2ccccc2)OC(=O)C1Sc1ccccc1` (configuration not stated) [5,6-Dihydro-4-hydroxy-6-phenyl-6-(2-phenylethyl)-3-(phenylthio)-2H-pyran-2-one], for which the pIC50 is 6.89.

`O=C1CC(c2ccccc2)OC(=O)C1SCc1ccccc1` (configuration not stated) [5,6-Dihydro-4-hydroxy-6-phenyl-3-[(phenylmethyl)thio]-2H-pyran-2-one] had a negative-log IC50 (pIC50) of 5.05.

With `O=C1CC(CC2CCCC2)(c2ccccc2)OC(=O)C1SCc1ccccc1` (configuration not stated) [6-(Cyclopentylmethyl)-5,6-dihydro-4-hydroxy-6-phenyl-3-[(phenylmethyl)thio]-2H-pyran-2-one], the pIC50 was 7.06.
